Where no end group is shown, it is not given here.
The sequences below were run on E. coli KCTC1682. Conditions: KCTC1682, 16 h.
Assay type: cell-based, Escherichia coli
In the case of FKHHIFRGIVHVGKTIHRLVTG [Pis-F2K], the MIC is reported as 4.0 µM.

The sequences below were run on E. coli KCTC2593. Conditions: KCTC2593, 16 h.
Assay type: cell-based, Escherichia coli
Sequence FKHHIFRGIVHVGKTIHRLVTG [Pis-F2K] has an MIC of 2.0 µM.

The sequences below were run on E.coli KCTC2571. Conditions: KCTC2571, 16 h.
Assay type: cell-based, Escherichia coli
For FKHHIFRGIVHVGKTIHRLVTG [Pis-F2K], the MIC was 2.0 µM.

What follows are sequences tested on P. aeruginosa KCTC1637. Conditions: KCTC1637, 16 h.
Assay type: cell-based, Pseudomonas aeruginosa
Work on FKHHIFRGIVHVGKTIHRLVTG [Pis-F2K] yielded an MIC of 4.0 µM.

The sequences below were run on P. aeruginosa KCTC2004. Conditions: KCTC2004, 16 h.
Assay type: cell-based, Pseudomonas aeruginosa
FKHHIFRGIVHVGKTIHRLVTG [Pis-F2K] gave an MIC of 8.0 µM.

Each sequence was assayed on P. aeruginosa KCTC2513. Conditions: KCTC2513, 16 h.
Assay type: cell-based, Pseudomonas aeruginosa
Work on FKHHIFRGIVHVGKTIHRLVTG [Pis-F2K] yielded an MIC of 8.0 µM.

What follows are sequences tested on S. typhimurium KCTC1926. Conditions: KCTC1926, 16 h.
Assay type: cell-based, Salmonella typhimurium
For FKHHIFRGIVHVGKTIHRLVTG [Pis-F2K], the MIC was 8.0 µM.

These sequences were tested on B. subtilis KCTC3068. Conditions: KCTC3068, 16 h.
Assay type: cell-based, Bacillus subtilis
FKHHIFRGIVHVGKTIHRLVTG [Pis-F2K] was tested, and the MIC was 4.0 µM.

The sequences below were run on B. subtilis KCTC1021. Conditions: KCTC1021, 16 h.
Assay type: cell-based, Bacillus subtilis
Work on FKHHIFRGIVHVGKTIHRLVTG [Pis-F2K] yielded an MIC of 4.0 µM.

These sequences were tested on B. subtilis KCTC1022. Conditions: KCTC1022, 16 h.
Assay type: cell-based, Bacillus subtilis
Work on FKHHIFRGIVHVGKTIHRLVTG [Pis-F2K] yielded an MIC of 1.0 µM.

Each sequence was assayed on S. epidermidis KCTC1917. Conditions: KCTC1917, 16 h.
Assay type: cell-based, Staphylococcus epidermidis
For FKHHIFRGIVHVGKTIHRLVTG [Pis-F2K], the MIC was 2.0 µM.

The sequences below were run on S. aureus KCTC1621. Conditions: KCTC1621, 16 h.
Assay type: cell-based, Staphylococcus aureus
With FKHHIFRGIVHVGKTIHRLVTG [Pis-F2K] the MIC was 4.0 µM.

Each sequence was assayed on S. aureus KCTC1916. Conditions: KCTC1916, 16 h.
Assay type: cell-based, Staphylococcus aureus
With FKHHIFRGIVHVGKTIHRLVTG [Pis-F2K] the MIC was 2.0 µM.

Each sequence was assayed on S. aureus KCTC3881. Conditions: KCTC3881, 16 h.
Assay type: cell-based, Staphylococcus aureus
FKHHIFRGIVHVGKTIHRLVTG [Pis-F2K] was tested, and the MIC was 2.0 µM.

What follows are sequences tested on MRSA CCARM3089. Conditions: CCARM3089, 16 h.
Assay type: cell-based, Methicillin-resistant S. aureus
FKHHIFRGIVHVGKTIHRLVTG [Pis-F2K] showed an MIC of 16 µM.

The sequences below were run on MRSA CCARM 3090. Conditions: CCARM 3090, 16 h.
Assay type: cell-based, Methicillin-resistant S. aureus
FKHHIFRGIVHVGKTIHRLVTG [Pis-F2K] showed an MIC of 16 µM.

Each sequence was assayed on MRSA CCARM 3108. Conditions: CCARM 3108, 16 h.
Assay type: cell-based, Methicillin-resistant S. aureus
With FKHHIFRGIVHVGKTIHRLVTG [Pis-F2K] the MIC was 16 µM.

The sequences below were run on MRSA CCARM 3114. Conditions: CCARM 3114, 16 h.
Assay type: cell-based, Methicillin-resistant S. aureus
FKHHIFRGIVHVGKTIHRLVTG [Pis-F2K] was tested, and the MIC was 16 µM.

These sequences were tested on MRSA CCARM 3126. Conditions: CCARM 3126, 16 h.
Assay type: cell-based, Methicillin-resistant S. aureus
Sequence FKHHIFRGIVHVGKTIHRLVTG [Pis-F2K] has an MIC of 16 µM.

What follows are sequences tested on MDRST CCARM 8003. Conditions: broth microdilution, 37°C, 16 h, three independent experiments in triplicate, SD 14.0%.
Assay type: cell-based, multidrug-resistant S. typhimurium
With FKHHIFRGIVHVGKTIHRLVTG [Pis-F2K] the MIC was 16 µM.

Each sequence was assayed on MDRST CCARM 8007. Conditions: broth microdilution, 37°C, 16 h, three independent experiments in triplicate, SD 14.0%.
Assay type: cell-based, multidrug-resistant S. typhimurium
For FKHHIFRGIVHVGKTIHRLVTG [Pis-F2K], the MIC was 16 µM.

Each sequence was assayed on MDRST CCARM 8009. Conditions: broth microdilution, 37°C, 16 h, three independent experiments in triplicate, SD 14.0%.
Assay type: cell-based, multidrug-resistant S. typhimurium
FKHHIFRGIVHVGKTIHRLVTG [Pis-F2K] gave an MIC of 16 µM.

What follows are sequences tested on MDREC CCARM 1229. Conditions: broth microdilution, 37°C, 16 h, three independent experiments in triplicate, SD 14.0%.
Assay type: cell-based, multidrug-resistant E. coli
FKHHIFRGIVHVGKTIHRLVTG [Pis-F2K] was tested, and the MIC was 16 µM.

Each sequence was assayed on MDREC CCARM 1238. Conditions: broth microdilution, 37°C, 16 h, three independent experiments in triplicate, SD 14.0%.
Assay type: cell-based, multidrug-resistant E. coli
FKHHIFRGIVHVGKTIHRLVTG [Pis-F2K] was tested, and the MIC was 16 µM.

These sequences were tested on MDRAB CCARM 12005. Conditions: broth microdilution, 37°C, 16 h, three independent experiments in triplicate, SD 14.0%.
Assay type: cell-based, multidrug-resistant Acinetobacter baumanii
FKHHIFRGIVHVGKTIHRLVTG [Pis-F2K] gave an MIC of 2.0 µM.

Each sequence was assayed on MDRAB CCARM 12035. Conditions: broth microdilution, 37°C, 16 h, three independent experiments in triplicate, SD 14.0%.
Assay type: cell-based, multidrug-resistant Acinetobacter baumanii
Sequence FKHHIFRGIVHVGKTIHRLVTG [Pis-F2K] has an MIC of 2.0 µM.

The sequences below were run on MDRAB CCARM 12036. Conditions: broth microdilution, 37°C, 16 h, three independent experiments in triplicate, SD 14.0%.
Assay type: cell-based, multidrug-resistant Acinetobacter baumanii
With FKHHIFRGIVHVGKTIHRLVTG [Pis-F2K] the MIC was 2.0 µM.

The sequences below were run on MDRAB CCARM 12037. Conditions: broth microdilution, 37°C, 16 h, three independent experiments in triplicate, SD 14.0%.
Assay type: cell-based, multidrug-resistant Acinetobacter baumanii
For FKHHIFRGIVHVGKTIHRLVTG [Pis-F2K], the MIC was 2.0 µM.

The sequences below were run on MDRPA CCARM 2002. Conditions: broth microdilution, 37°C, 16 h, three independent experiments in triplicate, SD 14.0%.
Assay type: cell-based, multidrug-resistant P. aeruginosa
FKHHIFRGIVHVGKTIHRLVTG [Pis-F2K] showed an MIC of 2.0 µM.

Each sequence was assayed on MDRPA CCARM 2003. Conditions: broth microdilution, 37°C, 16 h, three independent experiments in triplicate, SD 14.0%.
Assay type: cell-based, multidrug-resistant P. aeruginosa
FKHHIFRGIVHVGKTIHRLVTG [Pis-F2K] was tested, and the MIC was 2.0 µM.

Each sequence was assayed on MDRPA CCARM 2095. Conditions: broth microdilution, 37°C, 16 h, three independent experiments in triplicate, SD 14.0%.
Assay type: cell-based, multidrug-resistant P. aeruginosa
For FKHHIFRGIVHVGKTIHRLVTG [Pis-F2K], the MIC was 2.0 µM.

The sequences below were run on MDRPA CCARM 2163. Conditions: broth microdilution, 37°C, 16 h, three independent experiments in triplicate, SD 14.0%.
Assay type: cell-based, multidrug-resistant P. aeruginosa
With FKHHIFRGIVHVGKTIHRLVTG [Pis-F2K] the MIC was 2.0 µM.

Each sequence was assayed on Standard bacterial strains. Conditions: average over the 14 standard bacterial strains of Table 2.
Assay type: cell-based
In the case of FKHHIFRGIVHVGKTIHRLVTG [Pis-F2K], the “Average MIC” value is reported as 3.9 µM.

What follows are sequences tested on Drug-resistant bacterial strains. Conditions: average over the 18 drug-resistant bacterial strains of Table 3.
Description: Escherichia coli KCTC 1682, E. coli KCTC 2593, E. coli KCTC 2571, Salmonella typhimurium KCTC 1926, Pseudomonas aeruginosa KCTC 1637, P. aeruginosa KCTC 2004, P. aeruginosa KCTC 2513, Bacillus subtilis KCTC 3068, B. subtilis KCTC 1021, B. subtilis KCTC 1022, Staphylococcus epidermidis KCTC 1917, Staphylococcus aureus KCTC 1621, S. aureus KCTC 1916, and S. aureus KCTC 3881 were purchased from the Korean Collection for Type Cultures, Korea Research Institute of Bioscience & Biotechnology (Taejon, Korea). Methicillin-resistant S. aureus (MRSA) (CCARM 3089, CCARM 3090, CCARM 3108, CCARM 3114, and CCARM 3126), multidrug-resistant E. coli (MDREC) (CCARM 1229 and CCARM 1238), multidrug-resistant S. typhimurium (MDRST) (CCARM 8003, CCARM 8007, and CCARM 8009), multidrug-resistant Acinetobacter baumanii (MDRAB) (CCARM 12005, CCARM 12035, CCARM 12036, CCARM 12037), and multidrug-resistant P. aeruginosa (MDRPA) (CCARM 2002, CCARM 2003, CCARM 2095, and CCARM 2163) were obtained from the Culture Collection of Antibiotic-Resistant Microbes (CCARM) at Seoul Women’s University in Korea. The antimicrobial activities of the peptides against selected organisms, including three Gram-positive, three Gram-negative, and five antibiotic-resistant bacteria, were determined using a broth microdilution assay. Briefly, single colonies of bacteria and fungi were inoculated into Luria-Bertani (LB) medium and cultured overnight at 37°C. An aliquot of the culture was transferred to 10 mL of fresh LB and incubated for an additional 3–5 h at 37°C until it reached the mid-logarithmic phase. Two-fold serial dilutions of the peptides in 1% peptone were prepared. The serial dilutions (100 µL) were added to 100 µL of cells (2×10^6 colony-forming units (CFU)/mL) in 96-well microtiter plates and incubated at 37°C for 16 h. […] MIC values were calculated as the average of triplicate measurements from three independent assays.
With FKHHIFRGIVHVGKTIHRLVTG [Pis-F2K] the “Average MIC” value was 9.8 µM.

— paper PMC4256409, “Role of Phenylalanine and Valine^10 Residues in the Antimicrobial Activity and Cytotoxicity of Piscidin-1” (PLoS ONE, 2014)
